Laboratory results reported in patent publication US20070167502A1, “Association between a heterocyclic compound and an antioxidant agent” (priority 2004, published 2007).

System: Male C57 Black 6 ob/ob mice
Assay: Change in body weight of ob/ob mice after 7 days of treatment
Format: in vivo
Settings: intraperitoneal route once a day for 7 days, weight after 7 days of treatment
Experimental: Male C57 Black 6 ob/ob mice from 8 to 12 weeks old were used. […] After being weighed, the various compounds under test were injected by the intraperitoneal route once a day for 7 days. The compounds were injected in a solution of DMSO 5%/Solutol 15%/qsp H2O heated at 65° C. to ensure good dissolution. In addition, the solution was pre-heated before injection. The mice were weighed every day and the weight obtained after 7 days of treatment was recorded.

SMILES	reduction in the weight gain
CCOC(Cc1ccc(OCCn2c(=O)sc3cc(C(=NO)c4ccccc4)ccc32)cc1)C(=O)O (centres unmarked) [2-ethoxy-3-{4-[2-(6-[(hydroxyimino)(phenyl)methyl]-2-oxo-1,3-benzothiazol-3(2H)-yl)ethoxy]phenyl}propanoic acid]	10%
COC1=C(OC)C(=O)C(C/C=C(\C)CC/C=C(\C)CC/C=C(\C)CC/C=C(\C)CC/C=C(\C)CC/C=C(\C)CC/C=C(\C)CC/C=C(\C)CC/C=C(\C)CCC=C(C)C)=C(C)C1=O [coenzyme Q10]	does not reduce the weight gain
